{"source": "patent US5776957A", "about": "“Nornicotine enantiomers for use as a treatment for dopamine related conditions and disease states” (The University of Kentucky Research Foundation, priority 1996, dated 1998)", "key": {"[1]": {"assay": "Amphetamine drug discrimination (substitution tests)", "format": "in vivo, rat", "conditions": "for amphetamine-correct responding reached by individual rats: any dose, none of the rats reached; for amphetamine-appropriate responding (partial substitution): nicotine 0.1-1.0 mg/kg, nornicotine 1-10 mg/kg; for relative potency, nicotine vs nornicotine: partial substitution for amphetamine", "method": "Rats were trained in on two-lever food-reinforced operant tasks to discriminate amphetamine (1 mg/kg) from saline. After discrimination training stabilized, test doses of amphetamine (0.0625-2.0 mg/kg), nicotine (0.1-1.0 mg/kg) or nornicotine (1-10 mg/kg) were assessed for their ability to substitute for the amphetamine training dose during brief test sessions in which food reinforcement was withheld.\nNine male Sprague-Hawley rats were obtained from Harlan Industries (Indianapolis, Ind.) and were caged individually with water continuously available. Food access was restricted in order to maintain body weights at approximately 80% of free-feeding weight. Prior to the start of the experiment, all rats received a single injection of amphetamine (1 mg.kg, IP) as part of an unrelated experiment. Apparatus Six operant chambers (ENV-001, Med Associates, St. Albans, Vt.) enclosed in a sound attenuating environment were used. Located in the bottom center of the front panel in each chamber was a 5×4.-cm opening to a recessed food tray. Two metal response levers were located on the front panel, one on each side of the food tray. The center of each lever was mounted 7.3 cm from the grid floor. A 28-Vcue light, 3 cm in diameter, was centered 6 cm above each lever. A personal computer, interfaced to the chamber with Med Associates equipment, controlled the experimental sessions and collected data.\nThe general procedures utilized to establish amphetamine discrimination were similar to those outlined previously (13). Briefly, rats were first given access to food pellets (45 mg sucrose pellet, Noyes Co., Lancaster, N.H.) dispensed noncontingently into the food tray with both levers present. One lever was then removed and the rat was shaped to depress the other lever for food reinforcement. Following this, rats received 15-min daily sessions in which the lever (left or right) available for food reinforcement was alternated daily. […] The start of each session was signaled by the onset of both cue lights mounted above the levers, and the termination of each session was signaled by the offset of these lights. This training phase was continued until the rat earned 20 reinforces on an FR25 schedule for two days.\nAmphetamine discrimination training was conducted Monday through Friday. For this training, both levers were mounted in the chamber. Amphetamine (A; 1 mg/kg) or saline (S), was injected IP 15 min prior to the start of the session, with the order of injections being either AASS or SSAA. The left lever was designated as the amphetamine-correct lever for 4 rats, while the right lever was amphetamine -correct for 5 rats. On Monday, Wednesday and Friday, injection-appropriate responding was food-reinforcedon an FR25 schedule for the entire 15-min session. However, 2-min extinction periods were instituted at the beginning of sessions on Tuesday and Thursday (one amphetamine and one saline test per week) to assess the control of amphetamine (or saline) over responding. […] During the remaining 13 min of these sessions, contingent reinforcement for injection-appropriate responding was reinstated. This phase of training was continued until the rat completed the first FR25 on the correct lever for 10 consecutive sessions and also completed 80% or more responses on the injection-appropriate lever during 4 consecutive extinction periods.\nThe substitution phase was identical to the previously described amphetamine discrimination phase, except for the Friday session, which was decreased to a 4-min extinction session with no food available."}, "[2]": {"system": "[3H]DA-preloaded rat striatal slices (nicotinic receptors)", "conditions": "cited from earlier work"}, "[3]": {"assay": "NIC and metabolites in rat brain after s.c. injection of radiolabelled NIC", "format": "in vivo", "description": "NIC metabolism studies involving HPLRC analysis invariably utilize NIC with a radiolabel (i.e., [^3 H], [^14 C] or [^11 C]) incorporated in the methyl group. However N-demethylated NIC metabolites (norNIC and norCOT) cannot be detected after injection of such radionuclides, since the label is lost in the formation of these metabolites. NIC and four NIC metabolites have recently been detected in rat brain 4 hr after s.c. injection of [2'-^14 C]NIC (FIG. 3, Table I). Three of these metabolites have been identified as COT, norNIC and norCOT. A fourth minor metabolite (Peak B) has not been completely identified but appears to be an N-demethylated metabolite, since it is not detected in the [^3 H-N-methyl]NIC studies.\nCOT, and therefore, is unlikely to originate from COT N-demethylation. 3-HydroxyCOT and its glucuronide conjugate were not detected as metabolites of either NIC or COT in brain, even though these are major biotransformation products in the periphery (Crooks, 1993).\nIt appears that NIC metabolites which accumulate with a time course that correlates with the development of behavioral sensitization to NIC have a role in eliciting sensitization to NIC. The inventors have detected NIC, COT, norNIC and norCOT in brain 4 hr following acute s.c. injection of (±)[2'-^14 C]NIC. S(-) [^3 H] -N-methyl]NIC is unsuitable for studying brain metabolism of NIC, since nor-metabolites (i.e., demethylated metabolites) cannot be detected due to [^3 H]-loss during metabolism (Crooks et al., 1995b, AP 7). Thus, commercially available (±)[2'-^14 C]NIC was used to determine NIC metabolites present in brain. This form of radiolabelled NIC provides a metabolically stable [^14 C]-label which allows measurement of all potential NIC metabolites.\nA second \"metabolite\" (Peak A, FIG. 2) was also detected at each time point and most likely results from a combination of metabolic cleavage of the N-methyl group and dissociated-[^3 H], i e, Peak A represents an oxidized 1-carbon unit and indicates the extent of NIC N-demethylation. Note, in our subsequent studies with [2'-^14 C]NIC, Peak A was not observed, which is consistent with our interpretation of the results (Table 1)."}, "[4]": {"assay": "drug self-administration paradigm", "conditions": "rats"}}, "note": "“Also recorded” adds a separate entry of the source."}
{"smiles": "CN1CCC[C@H]1c1cccnc1", "note": "[S(-) nicotine]", "values": [{"measurement": "total number of lever presses", "setting": "[1]; 15 min", "result": "significant decreases in total number of lever presses"}, {"measurement": "plateau of dose-effect curve, amphetamine-appropriate responding", "setting": "[1]; 45 min", "result": 50}, {"measurement": "total number of lever presses", "setting": "[1]; 45 min", "result": "significant decrease in total number of lever presses"}, {"measurement": "amphetamine-correct responding reached by individual rats", "setting": "[1]", "result": "< 80", "unit": "%"}, {"measurement": "amphetamine-appropriate responding", "setting": "[1]; nicotine 1 mg/kg, 15 min", "result": "Approximately 50%"}, {"measurement": "amphetamine-appropriate responding (maximum)", "setting": "[1]; nicotine 1 mg/kg, 45 min", "result": "approximately 50%"}, {"measurement": "amphetamine-correct responses, individual rats", "setting": "[1]; nicotine 1 mg/kg, 45 min", "result": "31-59%"}, {"measurement": "amphetamine-appropriate responding (partial substitution)", "setting": "[1]", "result": "approximately 50%"}, {"measurement": "relative potency, nicotine vs nornicotine", "setting": "[1]", "result": "more potent than nornicotine"}, {"measurement": "plateau concentration of concentration-response curve", "setting": "[2]; Izenwasser et al. (1991), 10-min exposure", "result": 0.1, "unit": "µM"}, {"measurement": "EC50", "setting": "[2]; rat striatal slices, Sacaan et al. (1995), read-out: EC50 for NIC-evoked [3H]overflow", "result": 3.7, "unit": "µM"}, {"measurement": "level in CNS at 4 hrs post-NIC-injection", "setting": "[3]; 4 hrs", "result": "only low levels were detected"}, {"measurement": "Tmax", "setting": "[3]; in vivo, rat brain, read-out: time of maximum uptake in brain", "result": "30 to 60", "unit": "min"}, {"measurement": "self-administration / substitution for amphetamine", "setting": "[4]", "result": "responding was established and maintained"}]}
{"smiles": "c1cncc([C@@H]2CCCN2)c1", "note": "[S(-) nornicotine, S-(-) nornicotine]", "values": [{"measurement": "total number of lever presses", "setting": "[1]; 15 min", "result": "significant decreases in total number of lever presses"}, {"measurement": "plateau of dose-effect curve, amphetamine-appropriate responding", "setting": "[1]; 45 min", "result": 50}, {"measurement": "total number of lever presses", "setting": "[1]; 45 min", "result": "significant decrease in total number of lever presses"}, {"measurement": "amphetamine-correct responding reached by individual rats", "setting": "[1]", "result": "< 80", "unit": "%"}, {"measurement": "amphetamine-appropriate responding (partial substitution)", "setting": "[1]", "result": "approximately 50%"}, {"measurement": "amphetamine-appropriate responding", "setting": "[1]; nornicotine 3 mg/kg, 15 min", "result": "Approximately 50%"}, {"measurement": "amphetamine-appropriate responding (maximum)", "setting": "[1]; nornicotine 10 mg/kg, 45 min", "result": "approximately 50%"}, {"measurement": "amphetamine-correct responses, individual rats", "setting": "[1]; nornicotine 10 mg/kg, 45 min", "result": "33-61%"}, {"measurement": "relative potency, nicotine vs nornicotine", "setting": "[1]", "result": "less potent than nicotine"}, {"measurement": "behavioral profile in drug discrimination", "setting": "[1]; rat, in vivo", "result": "behavioral profile similar to nicotine"}, {"measurement": "antagonist sensitivity of effects", "setting": "[2]; Teng et al., 1996", "result": "inhibited by mecamylamine and DHβE"}, {"measurement": "presence as metabolite in brain", "setting": "[3]; rat brain, after s.c. radiolabelled NIC", "result": "present in significant amounts in brain"}, {"measurement": "self-administration / substitution for amphetamine", "setting": "[4]; listed as S-(-)-nornicotine", "result": "self-administered; also recorded: substitutes for amphetamine self administration"}, {"measurement": "self-administration / substitution for amphetamine", "setting": "[4]; listed as norNIC", "result": "reinforcing"}]}
